Patent US20090012152A1, “Use of Tetramic Acid Derivatives for Controlling Insects from the Genus of the Plane Lice (Sternorrhyncha)” (Bayer CropScience Aktiengesellschaft, priority 2005, published 2009)

Key:
Type in all cases: in vivo
[1] = test system: Bemisia argentifolii; experiment: Example 35: aubergines (F 100) treated against Bemisia argentifolii; settings: 7 d after last of three treatments, nymphs on leaves, % a.i.: imidacloprid 0.014, I-9, I-2, I-11 0.0144
Description: In three replications, plots of a size of 10 m^2 with aubergines of the cultivar “F 100” are treated against Bemisia argentifolii. The application is carried out using a knapsack sprayer operated with pressurized air. Here, the active compounds Example (I-9) (60 SC), Example (I-2) (60 SC) and Example (I-11) (60 SC) and the commercial standard imidacloprid (70 WG) are tested at the stated application rates. Three applications are carried out, at an interval or 7 or 8 days. The application rate is 1000 l of water/ha.
Evaluation is carried out 7 days after the last treatment by rating the kill of the nymphs on the leaves.

[2] = test system: Myzus persicae; experiment: Example 47: peach trees infested with Myzus persicae; settings: live animals on shoots, Henderson and Tilten, g a.i./ha/m crown height: imidacloprid 25, I-4 24; for Effect (%) 7 d: 7 d after application; for Effect (%) 14 d: 14 d after application; for Effect (%) 21 d: 21 d after application
Description: In three replications, under practical conditions, about 18-year-old peach trees of the cultivar “Vivian” infested with Myzus persicae are treated with Example (I-4) (240 SC) in a tank mix with 0.2% a.i. of rapeseed oil methyl ester (500 EW) in comparison to the commercial standard imidacloprid 200 SL, at the stated application rates. The application is carried out using a motor-operated knapsack sprayer. The application rate is 1000 l of water/ha.
Evaluation is carried out 7, 14 and 21 days after the application by counting the live animals on the shoots. The efficacy is then calculated by calculating the effect on the population in percent according to Henderson and Tilten.

[3] = test system: Bemisia tabaci; experiment: Example 33: cucumbers treated against Bemisia tabaci; settings: nymphs on leaves, % a.i.: imidacloprid 0.144, I-4 0.084; for Kill (%) 7 d: 7 d after first of two treatments; for Kill (%) 11 d: 11 d after first of two treatments; for Kill (%) 21 d: 21 d after first of two treatments
Description: In four replications, plots of a size of 26 m^2 with cucumbers of the cultivar “Beta alpha” are treated against Bemisia tabaci. The application is carried out using a knapsack sprayer operated with pressurized air. Here, the active compound Example (I-4) (240 SC), in a tank mix with 0.1% a.i. of rapeseed oil methyl ester (500 EW), and the commercial standard imidacloprid (200 SC) are tested at the stated application rates. Two applications are carried out, at an interval of 10 days. The application rate is 1000 l of water/ha.
Evaluation is carried out 7, 11 and 21 days after the first treatment by rating the kill of the animals (nymphs) on leaves.

[4] = test system: Aleurodes citri; experiment: Example 31: orange tree treated against Aleurodes citri; settings: on leaves, g a.i./ha/m crown height: imidacloprid 75, I-4 72; for Kill (%) 7 d: 7 d after treatment; for Kill (%) 14 d: 14 d after treatment; for Kill (%) 21 d: 21 d after treatment
Description: In four replications, in each case one orange tree of the cultivar “Newhall” is treated against Aleurodes citri. Here, the active compound Example (I-4) (240 SC) is, at the stated application rate, tested against the commercial standard imidacloprid. The active compounds are applied in a tank mix with 0.5% a.i. of Oliocin (700 EW), at an application rate of 1500 l of water/ha. The application is carried out using a motor-operated knapsack sprayer.
Evaluation is carried out 7, 14 and 21 days after the treatment by rating the kill of the animals on the leaves.

[5] = test system: Trioza erythreae; experiment: Example 8: orange trees treated against Trioza erythreae; settings: nymphs on branches, rate %: imidacloprid 0.004, I-4 0.0144; for Kill (%) 7 d: 7 d after first of two treatments; for Kill (%) 14 d: 14 d after first of two treatments; for Kill (%) 20 d: 20 d after first of two treatments
Description: In three replications, about 2-year-old orange trees are treated against Trioza erythreae. The application is carried out using a knapsack sprayer operated with pressurized air. Here, the active compound Example (I-4) (240 SC) is tested in a tank mix with 0.2% a.i. of rapeseed oil methyl ester (500 EW) against the commercial standard imidacloprid (100 SL) at the stated application rates. The application rate is 540 l of water/ha. Two treatments are carried out, at an interval of 7 days.
Evaluation is carried out 7, 14 and 20 days after the first treatment by rating the kill of the nymphs on the branches.

[6] = test system: Dysaphis plantaginea; experiment: Example 40: apple trees treated against Dysaphis plantaginea; settings: population on shoots, % a.i.: imidacloprid 0.007, I-9 0.0144, I-4 0.0144; for Kill (%) 14 d: 14 d after treatment; for Kill (%) 21 d: 21 d after treatment
Description: In three replications, three about 22-year-old apple trees of the cultivar “Golden Delicious” are treated eradicatively against Dysaphis plantaginea and Aphis pomi. The application is carried out using a motor-operated barrow-mounted sprayer. Here, the active compounds Example (I-9) (240 SC) and Example (I-4) (240 SC) in the stated amount are tested against the commercial standard imidacloprid (200 SL), at the stated application rate. The application rate is 1200 l of water/ha.
Evaluation is carried out 14 d and 21 d after the treatment by rating the kill of the population on the shoots.

[7] = test system: Toxoptera citricida; experiment: Example 45: orange tree treated against Toxoptera citricida; settings: on leaves, % a.i.: imidacloprid 0.0125, I-9 0.0144, I-4 0.0144; for Kill (%) 6 d: 6 d after treatment; for Kill (%) 20 d: 20 d after treatment
Description: In three replications, in each case one about 8-year-old orange tree of the cultivar “Navel” is treated against Toxoptera citricida. Here, the active compounds Example (I-9) (240 SC) and Example (I-4) (240 SC), in a tank mix with 0.1% a.i. of Marlipal, are tested against the commercial standard imidacloprid (350 SC), at the stated application rates. The application is carried out using a motor-operated knapsack sprayer, the application rate being 6.7 l of water/plant.
Evaluation is carried out 6 and 20 days after the treatment by rating the kill of the animals on the leaves.

[8] = test system: Viteus vitifolii; experiment: Example 4: vines treated against Viteus vitifolii; settings: 60 days after last of three treatments, on roots, imidacloprid drip irrigation 560 g/ha, I-4 0.0168%, I-9 0.0144% leaf spray
Description: In four replications, three in each case about 12-year-old vines of the cultivar “Auvemat” are treated against Viteus vitifolii. As commercial standard, imidacloprid is used at the recommended application rate by drip irrigation. The application of the active compounds is by spray application to the leaves using a knapsack operated with pressurized air. Here, the active compounds Example (I-4) (240 SC) and Example (I-9) (240 SC) are applied in a tank mix with 0.1% a.i. of rapeseed oil methyl ester (500 EW) at the stated amount. There are three applications on day 1, 2 and 15. The application rate is 1776 l of water/ha.
Evaluation is carried out 60 days after the last treatment by rating the kill on the roots in percent.

Structure (SMILES) | Kill (%) 7 d [1] [%] | Effect (%) 7 d [2] [%] | Effect (%) 14 d [2] [%] | Effect (%) 21 d [2] [%] | Kill (%) 7 d [3] [%] | Kill (%) 11 d [3] [%] | Kill (%) 21 d [3] [%] | Kill (%) 7 d [4] [%] | Kill (%) 14 d [4] [%] | Kill (%) 21 d [4] [%] | Kill (%) 7 d [5] [%] | Kill (%) 14 d [5] [%] | Kill (%) 20 d [5] [%] | Kill (%) 14 d [6] [%] | Kill (%) 21 d [6] [%] | Kill (%) 6 d [7] [%] | Kill (%) 20 d [7] [%] | Kill (%) [8] [%]
CCOC(=O)OC1=C(c2cc(C)ccc2Br)C(=O)NC12CCC(OC)CC2 (stereo not drawn) [Example (I-2)] | 100 |  |  |  |  |  |  |  |  |  |  |  |  |  |  |  |  | 
CCOC(=O)OC1=C(c2cc(C)ccc2C)C(=O)NC12CCC(OC)CC2 (stereo not drawn) [Example (I-4)] |  | 94.0 | 98.9 | 93.3 | 75 | 87 | 90 | 90.9 | 99.5 | 99.9 | 97.9 | 98.9 | 98.3 | 99.3 | 100 | 97 | 97 | 55
O=[N+]([O-])NC1=NCCN1Cc1ccc(Cl)nc1 [imidacloprid, reference compound] | 100 | 97.6 | 95.8 | 78.1 | 89 | 96 | 96 | 98.4 | 99.6 | 99.4 | 98.4 | 99.2 | 98.6 | 97.6 | 99.8 | 99 | 94 | 26
